Usually inhibition stands for the percentage by which the read-out fell short of the control.

The test system of the assay is HeLa299. Briefly: HeLa299 cytoxicity assay (MTT readout). It counts as cell-based. To be noted: HeLa299 cells, 72 hrs, complete growth media. As for the experimental part:
We tested IL-19 in a HeLa299 cytoxicity assay to measure the ability of IL-19 to prevent cells from growing during normal growth conditions. We used MTT reagent (Promega, Madison, USA) as our detection and readout for this cell inhibition assay. Procedure of a cytoxicity assay: • Day 1—Plate cells out in complete growth media (with serum) at 5000 cells/well in a 96 well format and let them incubate overnight at 37 degrees and 5% CO2. • Day 2—Dump off media and add a dose response of appropriate ligands in complete growth media (IL-19 at 10, 100, and 1000 ng/ml.), along with a positive control retinoic acid (100 uM) in complete growth media, while leaving some wells in complete growth media as controls of how the cells normally grow under normal conditions. Put the cells in incubator and let the assay go for 72 hrs. • Day 5—Add 15 ul/well of MTT reagent, let cells inc. for 4 hrs., then add 100 ul of stop solution, let cells inc. for an additional 1 hr., then read the plate on a multilabel counter (Victor2, PerkinElmer Life Sciences Inc., Boston). The MTT protocol will give you two readings, one at a 650 wavelength (background) and one at a 572 wavelength. Subtract the 650 reading from the 572 reading to get your actual output. These numbers are averaged and converted to a % inhibition value.

`CC1=C(/C=C/C(C)=C/C=C/C(C)=C/C(=O)O)C(C)(C)CCC1` [Retnoic Acid, retinoic acid]: testing at 100 µM (retinoic acid 100 uM) gave an inhibition of 53%.

B1: IL-19: interleukin-19 polypeptide, SEQ ID NO:2; mature secreted form from amino acid 23 (His) to 177 (Ala) (protein, listed as Homo sapiens)
chain: MKLQCVSLWLLGTILILCSVDNHGLRRCLISTDMHHIEESFQEIKRAIQAKDTFPNVTILSTLETLQIIKPLDVCCVTKNLLAFYVDRVFKDHQEPNPKILRKISSIANSFLYMQKTLRQCQEQRQCHCRQEATNATRVIHDNYDQLEVHAAAIKSLGELDVFLAWINKNHEVMSSA
For B1, the “maximal inhibition of growth” value (IL-19 dose response 10, 100, and 1000 ng/ml) was 38%.
